Data from publication PMC7953584, “An Experimental Study on [^125I]I-pHLIP (Var7) for SPECT/CT Imaging of an MDA-MB-231 Triple-Negative Breast Cancer Mouse Model by Targeting the Tumor Microenvironment” (Molecular Imaging, 2021).
Residues, ends and D or L forms follow the SMILES beside them.

Tests used:
MDA-MB-231 cells = assay: Cell binding fraction (cellular uptake test); format: cell-based, human; settings: for binding fraction B/(B + F) × 100%: 3.7 kBq per well, γ counter, mean ± SD
Procedure: The human breast cancer cell line MDA-MB-231 was purchased from Shanghai Institute of Biochemistry and Cell Biology, Chinese Academy of Sciences and cultured in L-15 medium containing 10% fetal bovine serum at 37°C without CO2.
• Cell Plating. After the MDA-MB-231 cells were grown to greater than 90% confluence, the cell concentration was adjusted to approximately 1.0 × 10^5 cells/mL, 1 mL of the cell suspension was added to each well of a 12-well plate, and cells were cultured overnight at 37°C in a cell incubator. • Drug Administration. At the logarithmic growth phase, the cells were treated with drugs on the day after attachment; 3.7 kBq of [^125I]I-pHLIP (Var7) (20 μL volume) was added to each well. The pH inside the wells was adjusted to 7.4 and 6.0, yielding two groups of cells according to the pH value. • After 10 min, 40 min, 1 h, and 2 h of culture without CO2, the supernatant was aspirated into a tube and washed with PBS of the corresponding pH (pH 7.4 and 6.0) twice. The wash solution was also added to the supernatant tube. The cells were completely digested with trypsin, after which the cell suspension was aspirated into a tube and washed twice with PBS; the wash solution was also added to the tube. The radioactive counts of the cell tube (B) and supernatant tube (F) were measured by a γ counter. The cell binding fraction of the marker was calculated as B/(B + F) × 100%

[1] = In vitro stability in mouse serum at 37°C (radiochemical purity); format: in vitro ADME; settings: 50 μL probe + 100 μL serum, paper chromatography, mean ± SD
Procedure: The purity of [^125I]I-pHLIP (Var7) was determined by paper chromatography. Normal saline was used as the developing agent, and Xinhua Grade 1 chromatography paper was used as the stationary phase. An appropriate amount of [^125I]I-pHLIP (Var7) eluent was aspirated by a capillary pipette and spotted at the origin of the chromatographic filter paper. After drying, the paper was placed vertically into a test tube containing the developing agent; the unfolded chromatographic filter paper was removed, air dried, and cut at intervals of 1 cm. The radioactivity count was measured segment by segment to calculate the radiochemical purity.
The purified [^125I]I-pHLIP (Var7) was placed at 4°C, at room temperature (25°C) in PBS buffer, and at 37°C in mouse serum. The radiochemical purity at different time points was measured, and the stability was determined. • Two hundred microliters of purified [^125I]I-pHLIP (Var7) solution was placed at 4°C and at room temperature in PBS buffer. Radiochemical purity was determined immediately after purification and at 1, 2, 4, 8, and 24 h after purification • Fifty microliters of purified [^125I]I-pHLIP (Var7) solution was mixed with 100 μL of mouse serum and placed in a 37°C water bath. Radiochemical purity was determined immediately after mixing and at 1, 2, 4, 8, and 24 h after mixing

CC(C)C[C@H](NC(=O)[C@H](CCC(=O)O)NC(=O)[C@H](CC(C)C)NC(=O)[C@H](CC(C)C)NC(=O)[C@H](CC(C)C)NC(=O)[C@@H](NC(=O)[C@H](CCC(=O)O)NC(=O)[C@@H](NC(=O)[C@@H]1CCCN1C(=O)[C@H](Cc1ccccc1)NC(=O)[C@H](CC(C)C)NC(=O)[C@H](Cc1c[nH]c2ccccc12)NC(=O)[C@H](CCC(=O)O)NC(=O)[C@H](CC(C)C)NC(=O)[C@H](Cc1ccc(O)c(I)c1)NC(=O)[C@H](CCCNC(=N)N)NC(=O)[C@H](C)NC(=O)[C@H](Cc1c[nH]c2ccccc12)NC(=O)[C@@H]1CCCN1C(=O)[C@H](CC(N)=O)NC(=O)[C@H](CCC(N)=O)NC(=O)[C@H](CCC(=O)O)NC(=O)[C@H](CCC(=O)O)NC(=O)[C@H](C)N)[C@@H](C)O)[C@@H](C)O)C(N)=O [[^125I]I-pHLIP (Var7)] (HELM PEPTIDE1{A.E.E.Q.N.P.W.A.R.[O=C([C@H](Cc1ccc(O)c(I)c1)N[*:1])[*:2]].L.E.W.L.F.P.T.E.T.L.L.L.E.L.[am]}$$$$V2.0)
binding fraction B/(B + F) × 100% (MDA-MB-231 cells; pH 6.0, 10 min): 1.9 ± 0.1%
binding fraction B/(B + F) × 100% (MDA-MB-231 cells; pH 6.0, 40 min): 3.5 ± 0.1%
binding to MDA-MB-231 cells (in words) (MDA-MB-231 cells; pH 7.4): essentially did not bind
binding fraction B/(B + F) × 100% (MDA-MB-231 cells; pH 7.4, 10 min): 0.9 ± 0.1%
binding fraction B/(B + F) × 100% (MDA-MB-231 cells; pH 7.4, 40 min): 0.8 ± 0.1%
binding fraction B/(B + F) × 100% (MDA-MB-231 cells; pH 7.4, 1 h): 0.8 ± 0.1%
binding fraction B/(B + F) × 100% (MDA-MB-231 cells; pH 7.4, 2 h): 0.6 ± 0.1%
probe stability in serum (radiochemical purity) ([1]; 1 h): 97.8 ± 1.9%
probe stability in serum (radiochemical purity) ([1]; 2 h): 96.8 ± 1.0%
probe stability in serum (radiochemical purity) ([1]; 4 h): 94.5 ± 1.1%
probe stability in serum (radiochemical purity) ([1]; 8 h): 91.3 ± 2.6%
